According to ChEMBL document CHEMBL1201862, “PubChem BioAssay data set” (2004):
“And” between values parts separate entries of the source, which are not always exact repeats. Equal entries are not always repeated.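 Protocol summary: plate cells (96-well), add compound at 5 concentrations, incubate 48 h, interpolate endpoints linearly. GI50 marks 50% less growth.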 The source made the active and inactive calls. Rule as the data show it: active = GI50 up to about 1.1 µM and inactive = higher. Peptide text beside a SMILES is read from it. * marks the point of attachment. Fmoc = O=C(OCC1c2ccccc2-c2ccccc21)*; Boc = CC(C)(C)OC(=O)*; OtBu = CC(C)(C)O*

Columns and labels:
Assay in all cases: NCI-60 cell line screen, 48 h
Malme-3M = test system: Malme-3M
NCI-H226 = test system: NCI-H226
DU-145 = test system: DU-145
U-251 = test system: U-251
SNB-19 = test system: SNB-19
SW-620 = test system: SW-620
LOX IMVI = test system: LOX IMVI
CAKI-1 = test system: CAKI-1
A498 = test system: A498
MCF7 = test system: MCF7
HT-29 = test system: HT-29
ACHN = test system: ACHN
T47D = test system: T47D
HCC 2998 = test system: HCC 2998
EKVX = test system: EKVX
IGROV-1 = test system: IGROV-1
TK-10 = test system: TK-10
SK-OV-3 = test system: SK-OV-3
Hs-578T = test system: Hs-578T
OVCAR-4 = test system: OVCAR-4
PC-3 = test system: PC-3
OVCAR-3 = test system: OVCAR-3
UACC-62 = test system: UACC-62
NCI-H23 = test system: NCI-H23
HOP-62 = test system: HOP-62
SK-MEL-28 = test system: SK-MEL-28
NCI/ADR-RES = test system: NCI/ADR-RES
SK-MEL-2 = test system: SK-MEL-2
A549 = test system: A549
COLO 205 = test system: COLO 205
MDA-MB-231 = test system: MDA-MB-231
SF-295 = test system: SF-295
SNB-75 = test system: SNB-75
HOP-92 = test system: HOP-92
NCI-H522 = test system: NCI-H522
RXF 393 = test system: RXF 393
UACC-257 = test system: UACC-257
KM12 = test system: KM12
HCT-15 = test system: HCT-15
OVCAR-5 = test system: OVCAR-5
HL-60 = test system: HL-60
SF-539 = test system: SF-539
MDA-MB-435 = test system: MDA-MB-435
HCT-116 = test system: HCT-116
MDA-N = test system: MDA-N
CCRF-CEM = test system: CCRF-CEM
SF-268 = test system: SF-268
SN12C = test system: SN12C
MOLT-4 = test system: MOLT-4
OVCAR-8 = test system: OVCAR-8
M14 = test system: M14
NCI-H460 = test system: NCI-H460
BT-549 = test system: BT-549
RPMI-8226 = test system: RPMI-8226
K562 = test system: K562
786-0 = test system: 786-0
SR = test system: SR
SK-MEL-5 = test system: SK-MEL-5

## CC1=NC(=N)N=C(C)C1/N=N/c1ccc2[nH]c(C)nc2c1 (stereo unspecified)
Malme-3M
  GI50: > 100 µM (inactive)
NCI-H226
  GI50: > 100 µM (inactive)
DU-145
  GI50: > 100 µM (inactive)
U-251
  GI50: > 100 µM (inactive)
SNB-19
  GI50: > 100 µM (inactive)
SW-620
  GI50: > 100 µM (inactive)
LOX IMVI
  GI50: > 100 µM (inactive)
CAKI-1
  GI50: > 100 µM (inactive)
A498
  GI50: > 100 µM (inactive)
MCF7
  GI50: > 100 µM (inactive)
HT-29
  GI50: > 100 µM (inactive)
ACHN
  GI50: > 100 µM (inactive)
T47D
  GI50: > 100 µM (inactive)
HCC 2998
  GI50: > 100 µM (inactive)
EKVX
  GI50: > 100 µM (inactive)
IGROV-1
  GI50: > 100 µM (inactive)
TK-10
  GI50: > 100 µM (inactive)
SK-OV-3
  GI50: > 100 µM (inactive)
Hs-578T
  GI50: > 100 µM (inactive)
OVCAR-4
  GI50: > 100 µM (inactive)
PC-3
  GI50: > 100 µM (inactive)
OVCAR-3
  GI50: > 100 µM (inactive)
UACC-62
  GI50: > 100 µM (inactive)
NCI-H23
  GI50: > 100 µM (inactive)
HOP-62
  GI50: > 100 µM (inactive)
SK-MEL-28
  GI50: > 100 µM (inactive)
NCI/ADR-RES
  GI50: > 100 µM (inactive)
SK-MEL-2
  GI50: > 100 µM (inactive)
A549
  GI50: > 100 µM (inactive)
COLO 205
  GI50: > 100 µM (inactive)
MDA-MB-231
  GI50: > 100 µM (inactive)
SF-295
  GI50: > 100 µM (inactive)
SNB-75
  GI50: > 100 µM (inactive)
HOP-92
  GI50: > 100 µM (inactive)
NCI-H522
  GI50: > 100 µM (inactive)
RXF 393
  GI50: > 100 µM (inactive)
UACC-257
  GI50: > 100 µM (inactive)
KM12
  GI50: > 100 µM (inactive)
HCT-15
  GI50: > 100 µM
OVCAR-5
  GI50: > 100 µM (inactive)
HL-60
  GI50: > 100 µM (inactive)
SF-539
  GI50: > 100 µM (inactive)
MDA-MB-435
  GI50: > 100 µM (inactive)
HCT-116
  GI50: > 100 µM (inactive)
MDA-N
  GI50: > 100 µM (inactive)
CCRF-CEM
  GI50: > 100 µM (inactive)
SF-268
  GI50: > 100 µM (inactive)
SN12C
  GI50: > 100 µM (inactive)
MOLT-4
  GI50: > 100 µM (inactive)
OVCAR-8
  GI50: > 100 µM (inactive)
M14
  GI50: > 100 µM (inactive)
NCI-H460
  GI50: > 100 µM (inactive)
BT-549
  GI50: > 100 µM (inactive)
RPMI-8226
  GI50: > 100 µM (inactive)
K562
  GI50: > 100 µM (inactive)
786-0
  GI50: > 100 µM (inactive)

## COC(=O)[C@H]1C[C@H]1NC(=O)C(CC(=O)OCc1ccccc1)NC(=O)OCc1ccccc1 (stereo partly specified)
NCI-H226
  GI50: 89.5 µM (inactive)
DU-145
  GI50: 73.5 µM (inactive)
U-251
  GI50: 81.5 µM (inactive)
SNB-19
  GI50: > 100 µM (inactive)
SW-620
  GI50: > 100 µM (inactive)
LOX IMVI
  GI50: 83 µM (inactive)
A498
  GI50: 61.8 µM (inactive)
MCF7
  GI50: 44.1 µM (inactive)
HT-29
  GI50: 39 µM (inactive)
ACHN
  GI50: 36.8 µM (inactive)
T47D
  GI50: 11.9 µM (inactive)
HCC 2998
  GI50: 88.3 µM (inactive)
EKVX
  GI50: 44.3 µM (inactive)
IGROV-1
  GI50: 52.1 µM (inactive)
TK-10
  GI50: 74.6 µM (inactive)
SK-OV-3
  GI50: 55 µM (inactive)
Hs-578T
  GI50: > 100 µM (inactive)
PC-3
  GI50: 35.3 µM (inactive)
NCI-H23
  GI50: 41.8 µM (inactive)
HOP-62
  GI50: > 10 µM (inactive)
SK-MEL-28
  GI50: 53.7 µM (inactive)
NCI/ADR-RES
  GI50: 28.3 µM (inactive)
SK-MEL-2
  GI50: 18.6 µM (inactive)
A549
  GI50: 43.8 µM (inactive)
COLO 205
  GI50: 24.4 µM (inactive)
MDA-MB-231
  GI50: > 100 µM (inactive)
SR
  GI50: 29.8 µM (inactive)
SF-295
  GI50: 50.7 µM (inactive)
SNB-75
  GI50: 36.2 µM (inactive)
NCI-H522
  GI50: 40.8 µM (inactive)
UACC-257
  GI50: 86.7 µM (inactive)
KM12
  GI50: 31.6 µM (inactive)
HCT-15
  GI50: 73.1 µM
OVCAR-5
  GI50: > 100 µM (inactive)
HL-60
  GI50: 17.9 µM (inactive)
SF-539
  GI50: 97.5 µM (inactive)
MDA-MB-435
  GI50: 35 µM (inactive)
HCT-116
  GI50: 47.6 µM (inactive)
MDA-N
  GI50: 60.1 µM (inactive)
CCRF-CEM
  GI50: 31.6 µM (inactive)
SF-268
  GI50: 55.2 µM (inactive)
SN12C
  GI50: > 100 µM (inactive)
MOLT-4
  GI50: 29.2 µM (inactive)
OVCAR-8
  GI50: 40 µM (inactive)
M14
  GI50: 25.7 µM (inactive)
NCI-H460
  GI50: 31.2 µM (inactive)
BT-549
  GI50: 23.4 µM (inactive)
RPMI-8226
  GI50: 19.1 µM (inactive)
K562
  GI50: 59.7 µM (inactive)
SK-MEL-5
  GI50: 25.4 µM (inactive)
786-0
  GI50: > 100 µM (inactive)

## CC(C)(C)OC(=O)CCC(NC(=O)OCC1c2ccccc2-c2ccccc21)C(=O)NC(Cc1c[nH]c2ccccc12)C(=O)NC(CCCCNC(=O)OC(C)(C)C)C(=O)N1CCCC1C(=O)NCC(N)=O (stereo unspecified) (Fmoc-E(OtBu)WK(Boc)PG-NH2; configuration not given here)
Malme-3M
  GI50: 19.7 µM (inactive) and 31 µM (inactive)
U-251
  GI50: 17.3 µM (inactive) and 17.2 µM (inactive)
SNB-19
  GI50: 19.6 µM (inactive) and 26.9 µM (inactive)
LOX IMVI
  GI50: 22.5 µM (inactive) and 12.2 µM (inactive)
MCF7
  GI50: 24.9 µM (inactive) and 26.5 µM (inactive)
HT-29
  GI50: > 100 µM (inactive) and 58.3 µM (inactive)
ACHN
  GI50: 17.7 µM (inactive) and 16.4 µM (inactive)
T47D
  GI50: 63.2 µM (inactive) and 52.5 µM (inactive)
HCC 2998
  GI50: 66.7 µM (inactive) and 34.8 µM (inactive)
IGROV-1
  GI50: 31.2 µM (inactive) and 16 µM (inactive)
Hs-578T
  GI50: 17.3 µM (inactive) and 28.4 µM (inactive)
OVCAR-4
  GI50: 12.9 µM (inactive) and 17.2 µM (inactive)
OVCAR-3
  GI50: 19.4 µM (inactive) and 16.8 µM (inactive)
UACC-62
  GI50: 15 µM (inactive) and 17 µM (inactive)
SK-MEL-28
  GI50: 48.1 µM (inactive) and 43.4 µM (inactive)
SK-MEL-2
  GI50: 18.2 µM (inactive) and 19.7 µM (inactive)
MDA-MB-231
  GI50: 15.6 µM (inactive) and 12.6 µM (inactive)
SR
  GI50: 26.5 µM (inactive) and 41.7 µM (inactive)
SF-295
  GI50: 34.8 µM (inactive) and 26.2 µM (inactive)
SNB-75
  GI50: 23.3 µM (inactive) and 16 µM (inactive)
HOP-92
  GI50: 18.5 µM (inactive) and 17.6 µM (inactive)
NCI-H522
  GI50: 1.62 µM (inactive)
RXF 393
  GI50: 22.2 µM (inactive) and 15 µM (inactive)
SF-539
  GI50: 35.6 µM (inactive) and 63.7 µM (inactive)
MDA-N
  GI50: 17.8 µM (inactive) and 25.5 µM (inactive)
MOLT-4
  GI50: 28.2 µM (inactive) and 24.4 µM (inactive)
OVCAR-8
  GI50: 34.6 µM (inactive) and 17.8 µM (inactive)
M14
  GI50: 22.4 µM (inactive) and 39.7 µM (inactive)
NCI-H460
  GI50: 25.9 µM (inactive) and 16.4 µM (inactive)
BT-549
  GI50: 16 µM (inactive) and 19.5 µM (inactive)
RPMI-8226
  GI50: 17.4 µM (inactive) and 34.4 µM (inactive)
K562
  GI50: 30.1 µM (inactive) and 42.5 µM (inactive)
SK-MEL-5
  GI50: 32 µM (inactive) and 16.2 µM (inactive)
786-0
  GI50: 20.7 µM (inactive) and 17.5 µM (inactive)
